Measurements: patent US11702404B2, “GLP-1R modulating compounds” (priority 2019, dated 2023)
Read-outs that look alike come from different tables or passages of the source.

Key:
[1] = Microsomal stability, human liver microsomes (predicted hepatic clearance); conditions: predicted from in vitro microsomal stability data
GLP-1R = GLP-1R (Homo sapiens, UniProt P43220); experiment: GLP-1R activation: cAMP increase in CHO cells stably expressing GLP-1R; format: cell-based; conditions: read-out: EC50
GLP-1R, sequence (P43220 24-463): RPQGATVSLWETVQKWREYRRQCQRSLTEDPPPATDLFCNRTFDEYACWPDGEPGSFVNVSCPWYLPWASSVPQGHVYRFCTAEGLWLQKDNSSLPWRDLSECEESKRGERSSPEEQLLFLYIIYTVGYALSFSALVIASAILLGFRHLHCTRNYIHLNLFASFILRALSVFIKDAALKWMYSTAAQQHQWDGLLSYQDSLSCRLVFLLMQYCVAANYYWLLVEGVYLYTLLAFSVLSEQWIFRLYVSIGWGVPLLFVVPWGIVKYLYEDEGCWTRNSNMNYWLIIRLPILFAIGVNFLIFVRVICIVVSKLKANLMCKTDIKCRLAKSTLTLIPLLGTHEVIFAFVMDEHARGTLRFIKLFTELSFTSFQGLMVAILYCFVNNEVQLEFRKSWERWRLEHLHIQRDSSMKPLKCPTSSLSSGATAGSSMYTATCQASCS

[2] = cAMP increase, CHO cells stably expressing GLP-1R, 10 point dose response, 30 minutes incubation

Row | SMILES | Predicted Hepatic Clearance (Pred. Cl.) [1] [mL/min/kg] | EC50 (GLP-1R; [2]) [nM] | EC50 (GLP-1R) [nM]
1 | N#Cc1ccc(COc2nccc(-c3cc(F)c(Cc4nc5c(F)cc(C(=O)O)cc5n4C[C@@H]4CCO4)cc3F)n2)c(F)c1 [Example 420, (S)-2-(4-(2-((4-cyano-2-fluorobenzyl)oxy)pyrimidin-4-yl)-2,5-difluorobenzyl)-4-fluoro-1-(oxetan-2-ylmethyl)-1H-benzo[d]imidazole-6-carboxylic acid] | 3.5 | 0.05 | 
2 | N#CCC1(Cn2c(Cc3cc(F)c(-c4cccc(OCc5ccc(C#N)cc5F)n4)cc3F)nc3ccc(C(=O)O)nc32)CC1 [Example 273, 2-(4-(6-((4-cyano-2-fluorobenzyl)oxy)pyridin-2-yl)-2,5-difluorobenzyl)-3-((1-(cyanomethyl)cyclopropyl)methyl)-3H-imidazo[4,5-b]pyridine-5-carboxylic acid] | 7 | 0.52 | 
3 | COC1(Cn2c(Cc3cc(F)c(-c4cccc(OCc5ccc(C#N)cc5F)n4)cc3F)nc3ccc(C(=O)O)cc32)CN(C(C)=O)C1 [Example 687] | 8.67 | 181 | 
4 | CC(=O)N1CCC[C@H](Cn2c(Cc3ccc(-c4cccc(OCc5ccc(C#N)cc5F)n4)cc3F)nc3ccc(C(=O)O)cc32)C1 [Example 488, (R)-1-((1-acetylpiperidin-3-yl)methyl)-2-(4-(6-((4-cyano-2-fluorobenzyl)oxy)pyridin-2-yl)-2-fluorobenzyl)-1H-benzo[d]imidazole-6-carboxylic acid] | 10 | 1090 | 
5 | CO[C@@H](CO)Cn1c(Cc2cc(F)c(-c3cccc(OCc4ccc(C#N)cc4F)n3)cc2F)nc2ccc(C(=O)O)cc21 [Example 619] | 6.67 | 3.1 | 
6 | COCCn1c(Cc2cc(F)c(-c3cccc(OCc4cccc(-c5ccn(C)n5)c4)n3)cc2F)nc2ccc(C(=O)O)cc21 [Example 914] | 6 | 51.5 | 
7 | N#Cc1ccc(COc2cccc(-c3ccc(Cc4nc5c(F)cc(C(=O)O)cc5n4C[C@@H]4CCO4)c(F)c3)n2)c(F)c1 [Example 455, (S)-2-(4-(6-((4-cyano-2-fluorobenzyl)oxy)pyridin-2-yl)-2-fluorobenzyl)-4-fluoro-1-(oxetan-2-ylmethyl)-1H-benzo[d]imidazole-6-carboxylic acid] | <1.83 | 1.87 | 
8 | CCn1cncc1Cn1c(Cc2ccc(-c3cccc(OCc4ccc(C#N)cc4F)c3)cc2F)nc2ccc(C(=O)O)cc21 [Example 527, 2-((3′-((4-cyano-2-fluorobenzyl)oxy)-3-fluoro-[1,1′-biphenyl]-4-yl)methyl)-1-((1-ethyl-1H-imidazol-5-yl)methyl)-1H-benzo[d]imidazole-6-carboxylic acid] | 3.67 | 1.84 | 
9 | COCCn1c(Cc2ccc(-c3nc(OCc4ccc(C#N)cc4F)cs3)cc2F)nc2ccc(C(=O)O)cc21 [Example 84, 2-(4-(4-((4-cyano-2-fluorobenzyl)oxy)thiazol-2-yl)-2-fluorobenzyl)-1-(2-methoxyethyl)-1H-benzo[d]imidazole-6-carboxylic acid] | 6.33 | 54.3 | 
10 | N#CCC1(Cn2c(Cc3cc(F)c(-c4ccnc(OCc5ccc(C#N)cc5F)n4)cc3F)nc3ccc(C(=O)O)cc32)CC1 [Example 441, 2-(4-(2-((4-cyano-2-fluorobenzyl)oxy)pyrimidin-4-yl)-2,5-difluorobenzyl)-1-((1-(cyanomethyl)cyclopropyl)methyl)-1H-benzo[d]imidazole-6-carboxylic acid] | 3 | 0.21 | 
11 | COCCn1c(Cc2ccc(-c3cccc(OCc4ccc(C#N)cc4F)n3)cc2C2CC2)nc2ccc(C(=O)O)cc21 [Example 178, 2-(4-(6-((4-cyano-2-fluorobenzyl)oxy)pyridin-2-yl)-2-cyclopropylbenzyl)-1-(2-methoxyethyl)-1H-benzo[d]imidazole-6-carboxylic acid] | 9.83 | 32.5 | 
12 | N#Cc1ccc(COc2cccc(-c3ccc(Cc4nc5ccc(C(=O)O)cc5n4CC4(Br)CC4)c(F)c3)n2)c(F)c1 [Example 289, 1-((1-bromocyclopropyl)methyl)-2-(4-(6-((4-cyano-2-fluorobenzyl)oxy)pyridin-2-yl)-2-fluorobenzyl)-1H-benzo[d]imidazole-6-carboxylic acid] | 1.92 | 3.02 | 
13 | COCCn1c(Cc2cc(F)c(-c3cccc(OCc4ccc(C#N)cc4F)n3)cc2F)nc2ccc(-c3nn[nH]n3)cc21 [Example 104, 4-[[6-[2,5-difluoro-4-[[1-(2-methoxyethyl)-6-(2H-tetrazol-5-yl)benzimidazol-2-yl]methyl]phenyl]-2-pyridyl]oxymethyl]-3-fluoro-benzonitrile] | 12.7 | 21.4 | 
14 | COCCn1c(Cn2cc(F)c(-c3cccc(OCc4ccc(C#N)cc4F)n3)cc2=O)nc2ccc(C(=O)O)cc21 [Example 434] | 3.17 | 2.86 | 
15 | CC(C1CCCO1)n1c(Cc2cc(F)c(-c3cccc(OCc4ccc(C#N)cc4F)n3)cc2F)nc2ccc(C(=O)O)cc21 (stereo not shown) [Example 833] | 9.83 | 6.41 | 
16 | N#Cc1ccc(COc2cccc(-c3cc(F)c(Cc4nc5ccc(C(=O)O)cc5n4C4CCCC4(F)F)cc3F)n2)c(F)c1 (stereo not shown) [Example 700] | 5.17 | 3.48 | 
17 | N#Cc1ccc(COc2nccc(-c3cc(F)c(Cc4nc5c(F)cc(C(=O)O)cc5n4CC45CC(CO4)C5)cc3F)n2)c(F)c1 [Example 644] | 8 | 0.69 | 
18 | N#CCC1(Cn2c(Cc3cc(F)c(-c4ccc(F)c(OCc5ccc(C#N)cc5F)n4)cc3F)nc3ccc(C(=O)O)nc32)CC1 [Example 130, 2-(4-(6-((4-cyano-2-fluorobenzyl)oxy)-5-fluoropyridin-2-yl)-2,5-difluorobenzyl)-3-((1-(cyanomethyl)cyclopropyl)methyl)-3H-imidazo[4,5-b]pyridine-5-carboxylic acid] | 5.5 | 0.11 | 
19 | COCCn1c(Cc2ccc(-c3cccc(OCc4ccc(C#N)cc4F)n3)cc2F)nc2ncc(C(=O)O)cc21 [Example 71, 2-(4-(6-((4-cyano-2-fluorobenzyl)oxy)pyridin-2-yl)-2-fluorobenzyl)-1-(2-methoxyethyl)-1H-imidazo[4,5-b]pyridine-6-carboxylic] | <1.83 | 1.34 | 
20 | N#Cc1ccc(COc2ccnc(-c3cc(F)c(Cc4nc5c(F)cc(C(=O)O)cc5n4C[C@@H]4CCO4)cc3F)n2)c(F)c1 [Example 778] | 3.67 | 0.13 | 
21 | CC(=O)N1CC[C@@H]1Cn1c(Cc2cc(F)c(-c3cccc(OCc4ccc(C#N)cc4F)n3)cc2F)nc2ccc(C(=O)O)cc21 [Example 925, (R)-1-((1-acetylazetidin-2-yl)methyl)-2-(4-(6-((4-cyano-2-fluorobenzyl)oxy)pyridin-2-yl)-2,5-difluorobenzyl)-1H-benzo[d]imidazole-6-carboxylic acid] | 5.83 |  | 3.63
22 | COCCn1c(Cc2ccc(-c3nc(OCc4ccc(C#N)cc4F)ccc3F)cc2F)nc2ccc(C(=O)O)cc21 [Example 91, 2-(4-(6-((4-cyano-2-fluorobenzyl)oxy)-3-fluoropyridin-2-yl)-2-fluorobenzyl)-1-(2-methoxyethyl)-1H-benzo[d]imidazole-6-carboxylic acid] | 5 | 2630 | 
23 | N#CCC1(Cn2c(Cc3cc(F)c(-c4ccnc(OCc5ccc(Cl)cc5F)n4)cc3F)nc3ccc(C(=O)O)cc32)CC1 [Example 442, 2-(4-(2-((4-chloro-2-fluorobenzyl)oxy)pyrimidin-4-yl)-2,5-difluorobenzyl)-1-((1-(cyanomethyl)cyclopropyl)methyl)-1H-benzo[d]imidazole-6-carboxylic acid] | 3.67 | 0.14 | 
24 | CC1(Cn2c(Cc3ccc(-c4cccc(OCc5ccc(C#N)cc5F)n4)cc3F)nc3ccc(C(=O)O)cc32)CCC1 [Example 384, 2-(4-(6-((4-cyano-2-fluorobenzyl)oxy)pyridin-2-yl)-2-fluorobenzyl)-1-((1-methylcyclobutyl)methyl)-1H-benzo[d]imidazole-6-carboxylic acid] | <1.83 | 1.45 | 
25 | N#Cc1ccc(COc2cccc(-c3cc(F)c(Cc4nc5ccc(C(=O)O)cc5n4C[C@@H]4CCO4)cc3F)n2)c(F)c1 [Example 444, (S)-2-(4-(6-((4-cyano-2-fluorobenzyl)oxy)pyridin-2-yl)-2,5-difluorobenzyl)-1-(oxetan-2-ylmethyl)-1H-benzo[d]imidazole-6-carboxylic acid] | 4.13 | 0.25 | 
26 | COCCn1c(Cc2ccc(-c3nc(OCc4ccc(C#N)cc4F)ncc3F)cc2F)nc2ccc(C(=O)O)cc21 [Example 358, 2-(4-(2-((4-cyano-2-fluorobenzyl)oxy)-5-fluoropyrimidin-4-yl)-2-fluorobenzyl)-1-(2-methoxyethyl)-1H-benzo[d]imidazole-6-carboxylic] | 6.5 | 33.1 | 
27 | N#Cc1ccc(COc2ccc(F)c(-c3cc(F)c(Cc4nc5ccc(C(=O)O)cc5n4CCOC4CC4)cc3F)n2)c(F)c1 [Example 899] | 4 | 2.26 | 
28 | CC(C)(C#N)Cn1c(Cc2ccc(-c3cccc(OCc4ccc(C#N)cc4F)n3)cc2F)nc2ccc(C(=O)O)cc21 [Example 14, 2-(4-(6-((4-cyano-2-fluorobenzyl)oxy)pyridin-2-yl)-2-fluorobenzyl)-1-(2-cyano-2-methylpropyl)-1H-benzo[d]imidazole-6-carboxylic acid] | 5 | 3.14 | 
29 | O=C(O)c1cc(F)c2nc(Cc3cc(F)c(-c4nc(OCc5ccc(C(F)(F)F)cc5F)ccc4F)cc3F)n(C[C@@H]3CCO3)c2c1 [Example 781] | 3.17 | 0.03 | 
